Here are results for 32 compounds from patent US8466157B2, “Proteasome inhibitors having chymotrypsin-like activity” (University of South Florida, priority 2009, dated 2013).

This experiment concerns the target T1, chymotrypsin-like activity of the purified rabbit 20S proteasome (Oryctolagus cuniculus, UniProt G1T4Q9).
T1 sequence (G1T4Q9 1-263): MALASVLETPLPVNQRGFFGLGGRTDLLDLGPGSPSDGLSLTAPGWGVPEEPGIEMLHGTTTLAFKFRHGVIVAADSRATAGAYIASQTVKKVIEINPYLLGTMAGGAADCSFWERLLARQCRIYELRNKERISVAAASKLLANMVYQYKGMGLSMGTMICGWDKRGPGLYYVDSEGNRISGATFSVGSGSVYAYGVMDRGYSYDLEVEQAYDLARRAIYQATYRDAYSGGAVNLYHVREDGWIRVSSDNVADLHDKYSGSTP
The experiment is described as follows: 20S proteasome inhibition assay, fluorogenic substrate Suc-Leu-Leu-Val-Tyr-AMC.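 For all read-outs here: enzyme and 20 µM substrate incubated 1 h at 37 °C in Tris-HCl buffer pH 7.6, fluorogenic read-out, inhibition calculated against vehicle control.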 Type of experiment: biochemical. The conditions noted are these: for proteasome inhibitory activity, SAR statement in words: chymotrypsin-like activity, compared with lead or analogue.

The mark [1] stands for this setting: individual determinations (runs M-1096, M-1098, M-1099, AK or dated), read-out: Chymotrypsin-like Activity IC50.
[2] abbreviates: mean of the individual determinations, read-out: Chymotrypsin-like Activity IC50 (μM), mean ± spread (n).

“And” between values parts separate entries of the source, which are not always exact repeats. Equal values may be shown once. Read-outs that look alike come from different tables or passages of the source. Some results are limits rather than exact numbers.

Protocol: 20S Proteasome Inhibition Assay
In our work, we used chymotrypsin-like substrate Suc-Leu-Leu-Val-Tyr-AMC to test the proteasome inhibition activity of the synthesized compounds.
The assay was conducted by using a fluorogenic peptide as substrate to test synthesized compounds for inhibitory activity against the chymotrypsin-like activity of the purified rabbit 20S proteasome. Briefly, 70 ng of purified 20S proteasome was incubated with 20 μM Suc-Leu-Leu-Val-Tyr-AMC for 1 hour at 37° C. in 100 μl of assay buffer (50 mM Tris-HCl, pH 7.6) with or without inhibitors. […] The inhibitory activity of the compounds was calculated based on vehicle control.

In general, IC50 refers to the point on the concentration scale where inhibition reaches its midpoint. Consider `CN(C)C1=C/C(=N\S(=O)(=O)c2cccs2)c2ccccc2C1=O` [YG1-125, N-(3-(dimethylamino)-4-oxonaphthalen-1(4H)-ylidene)thiophene-2-sulfonamide], for which the IC50 under setting [1] was above 10 µM.

With `CCOC1=C/C(=N\S(=O)(=O)c2cccs2)c2ccccc2C1=O` [YG1-122, N-(3-ethoxy-4-oxonaphthalen-1(4H)-ylidene)thiophene-2-sulfonamide], under setting [1], the IC50 was above 10 µM.

In the case of `O=C1C=C(O)C(=O)c2ccccc21` [S.M. of YL2-013, 2-hydroxynaphthalene-1,4-dione], under setting [1], the IC50 is above 10 µM.

As for `CCSC1=C/C(=N\S(=O)(=O)c2cccs2)c2ccccc2C1=O` [YG2-086-1, N-(3-(ethylthio)-4-oxonaphthalen-1(4H)-ylidene)thiophene-2-sulfonamide], the IC50 under setting [1] is 9.4 µM and 9.85 µM.

On to `CN(C)C(=O)CCSc1cc(NS(=O)(=O)c2cccs2)c2ccccc2c1O` [HL4-100-1, 3-(1-hydroxy-4-(thiophene-2-sulfonamido)naphthalen-2-ylthio)-N,N-dimethylpropanamide], for which the 50% inhibitory concentration (IC50) under setting [1] is above 10 µM.

As to `CNC(=O)CCSc1cc(NS(=O)(=O)c2cccs2)c2ccccc2c1O` [HL4-100-2, 3-(1-hydroxy-4-(thiophene-2-sulfonamido)naphthalen-2-ylthio)-N-methylpropanamide], the IC50 under setting [1] was above 10 µM.

Turning to `CCOC(=O)CSc1cc(NS(=O)(=O)c2cccs2)c2ccccc2c1O` [YG1-094-2], under setting [1], the IC50 is 2.67 µM and 9.65 µM and 9.5 µM.

For the compound `O=C(O)CSc1cc(NS(=O)(=O)c2ccc(Cl)cc2)c2ccccc2c1O` [YG2-034-1, 2-(4-(4-chlorophenylsulfonamido)-1-hydroxynaphthalen-2-ylthio)acetic acid], the IC50 under setting [1] is > 10 µM and 3.44 µM and 4.15 µM.

As to `Nc1ccc(SCC(=O)O)c2ccccc12` [YG3-005, 2-(4-aminonaphthalen-1-ylthio)acetic acid], the IC50 under setting [1] was above 10 µM.

As for `O=C1C(N2CCN(c3ccccn3)CC2)=C/C(=N\S(=O)(=O)c2cccs2)c2ccccc21` [YG1-130], the IC50 under setting [1] was above 10 µM.

Take `CCOC(=O)CSC1=C/C(=N\S(=O)(=O)c2ccc(-c3ccccc3)cc2)c2ccccc2C1=O` [YG2-011]: the concentration for half-maximal inhibition (IC50) under setting [1] is above 10 µM.

Take `CC(C)(C)OC(=O)CC1C(=O)C(=O)c2ccccc2C1=O` (stereo not drawn) [YL2-015 4th spot]: the half-inhibitory concentration (IC50) under setting [1] was above 10 µM.

Take `CCOC(=O)CSc1cc(NS(=O)(=O)c2ccc([N+](=O)[O-])cc2)c2ccccc2c1O` [YG1-148F5, Ethyl 2-(1-hydroxy-4-(4-nitrophenylsulfonamido)naphthalen-2-ylthio)acetate]: the “proteasome inhibitory activity, SAR statement in words” value (shortened to “proteasome inhibitory activity”) is recorded as “slightly enhanced the activity”. In addition, under setting [1], the IC50 is 0.82 µM and 4.55 µM and 5.36 µM.

In the case of `O=C1CSc2cc(NS(=O)(=O)c3cccs3)c3ccccc3c2O1` [YG2-120, N-(2-oxo-2,3-dihydronaphtho[1,2-b][1,4]oxathiin-6-yl)thiophene-2-sulfonamide], the IC50 under setting [1] is 1.1 µM and 1.79 µM.

Turning to `CC(C)(C)OC(=O)COc1cc(NS(=O)(=O)c2cccs2)c2ccccc2c1O` [YL2-025, tert-Butyl-2-(1-hydroxy-4-(thiophene-2-sulfonamido)naphthalen-2-yloxy)acetate], under setting [1], the IC50 was above 10 µM.

For `CCOC(=O)CSC1=C(SCC(=O)OCC)C(=O)c2ccccc2C1=O` [YG1-017], the “Chymotrypsin-like Activity Inhib at 100 μM” value (100 μM) is 57% and 36%. Besides, under setting [1], the IC50 is > 30 µM and 48 µM and > 100 µM.

Turning to `CC(C)(C)OC(=O)COc1ccc(NS(=O)(=O)c2cccs2)c2ccccc12` [YG2-080, tert-butyl 2-(4-(thiophene-2-sulfonamido)naphthalen-1-yloxy)acetate], the IC50 under setting [1] is above 10 µM.

Regarding `CC(C)(C)OC(=O)COC1=C/C(=N\S(=O)(=O)c2cccs2)c2ccccc2C1=O` [YL2-023, tert-Butyl-2-(1-oxo-4-(thiophen-2-ylsulfonylimino)-1,4-dihydronaphthalen-2-yloxy)acetate], the IC50 under setting [1] is above 10 µM.

In the case of “N-(3-(ethylthio)-4-hydroxynaphthalen-1-yl)thiophene-2-sulfonamide [YG2-087-1]”, under setting [1], the half-maximal inhibitory concentration (IC50) was above 10 µM.

For the compound `CCOC(=O)CSC1=C/C(=N\S(=O)(=O)c2ccc(C)cc2)c2ccccc2C1=O` [YG2-014, Ethyl 2-(1-oxo-4-(tosylimino)-1,4-dihydronaphthalen-2-ylthio)acetate], the IC50 by setting is: under setting [1], 4 µM and 4.7 µM and 4.2 µM and > 10 µM; under setting [2], 4.3 µM.

Regarding `CCSc1cc(NS(=O)(=O)c2cccs2)c2ccccc2c1O` [YG2-087-1, N-(3-(ethylthio)-4-hydroxynaphthalen-1-yl)thiophene-2-sulfonamide], the “proteasome inhibitory activity” value is recorded as “the inhibitory activity totally lost”.

By inhibition is commonly meant the change of the read-out against control, counted positive when it falls. `CCOC(=O)CSC1=CC(=O)c2ccccc2C1=O` [YG1-059, Ethyl 2-(1,4-dioxo-1,4-dihydronaphthalen-2-ylthio)acetate] came in with an inhibition at 30 µM (30 μM, runs M-1096, M-1098, M-1099) of 49%. Besides, the IC50 under setting [1] is above 100 µM.

Turning to `CNC(=O)CCSC1=C/C(=N\S(=O)(=O)c2cccs2)c2ccccc2C1=O` [HL4-078-2, N-methyl-3-(1-oxo-4-(thiophen-2-ylsulfonylimino)-1,4-dihydronaphthalen-2-ylthio)propanamide], the IC50 under setting [1] is 8.1 µM and > 10 µM (2×).

For the compound `O=C(O)CS(=O)(=O)c1cc(NS(=O)(=O)c2cccs2)c2ccccc2c1O` [YG1-134, 2-(1-hydroxy-4-(thiophene-2-sulfonamido)naphthalen-2-ylsulfonyl)acetic acid], the “proteasome inhibitory activity” value was “loss or reduction of the inhibitory activity”. The IC50 under setting [1] was above 10 µM.

Consider `CCOC(=O)CSC1=C/C(=N\S(=O)(=O)c2cccs2)c2ccccc2C1=O` [YG1-094], for which the IC50 by setting is: under setting [1], 1.6 µM and > 10 µM and 2.8 µM and 3 µM and 1.5 µM and 2.5 µM; under setting [2], 2.28 µM.

Turning to “N-(3-(1-methyl-1H-tetrazol-5-ylthio)-4-oxonaphthalen-1(4H)-ylidene)thiophene-2-sulfonamide [YG1-158-1]”, the IC50 reads like this: under setting [1], 2.46 µM and 7.24 µM and 7.9 µM and 9.8 µM and > 10 µM and 1.24 µM and 1.81 µM; under setting [2], 5.08 µM.

As for `O=C(O)CSc1cc(NS(=O)(=O)c2ccccc2)c2ccccc2c1O` [YG1-117, 2-(1-hydroxy-4-(phenylsulfonamido)naphthalen-2-ylthio)acetic acid], the IC50 reads like this: under setting [1], 0.68 µM and 2.71 µM and 2.9 µM and 1.9 µM and 2.2 µM; (value quoted in running text / FIG. 11, read-out: IC50 against chymotrypsin-like proteasome activity) 2.08 µM.

On to `O=C(O)COc1cc(NS(=O)(=O)c2cccs2)c2ccccc2c1O` [YL2-030, 2-(1-hydroxy-4-(thiophene-2-sulfonamido)naphthalen-2-yloxy)acetic acid], for which the “proteasome inhibitory activity” value is recorded as “diminished the inhibitory activity”. Moreover, the IC50 under setting [1] is above 10 µM.

As to `O=C(O)CCCOc1ccc(NS(=O)(=O)c2cccs2)c2ccccc12` [YG2-094, 4-(4-(thiophene-2-sulfonamido)naphthalen-1-yloxy)butanoic acid], the IC50 under setting [1] was above 10 µM.

As for `O=C(CCSc1cc(NS(=O)(=O)c2cccs2)c2ccccc2c1O)NC1CC1` [HL4-100-3, N-cyclopropyl-3-(1-hydroxy-4-(thiophene-2-sulfonamido)naphthalen-2-ylthio)propanamide], the IC50 reads like this: under setting [1], 8.6 µM and 6 µM and > 10 µM; under setting [2], 7.3 µM.

Regarding `O=C(O)c1cccc(NC2=C/C(=N\S(=O)(=O)c3cccs3)c3ccccc3C2=O)c1` [YG1-174, 3-(1-oxo-4-(thiophen-2-ylsulfonylimino)-1,4-dihydronaphthalen-2-ylamino)-benzoic acid], under setting [1], the IC50 was above 10 µM.

Regarding `O=C1C(Cl)=C/C(=N\S(=O)(=O)c2cccs2)c2ccccc21` [YG2-133-2], the IC50 under setting [1] was 4.25 µM and 2.75 µM.
